PubChem BioAssay (NCI)
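Compound exposure: 48 hours, 5 concentrations, 96-well plates. TGI: total growth inhibition.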

Columns and labels:
Test in all cases: inhibition of tumour cell growth, NCI panel, 48 h
NCI-H23 lung = system: NCI-H23 lung
A498 renal = system: A498 renal
COLO 205 colon = system: COLO 205 colon
HCC-2998 colon = system: HCC-2998 colon
MDA-MB-231 breast = system: MDA-MB-231 breast
SF-539 CNS = system: SF-539 CNS
SNB-75 CNS = system: SNB-75 CNS
SW-620 colon = system: SW-620 colon
HS 578T breast = system: HS 578T breast
HCT-116 colon = system: HCT-116 colon
SR leukemia = system: SR leukemia
BT-549 breast = system: BT-549 breast
CAKI-1 renal = system: CAKI-1 renal
CCRF-CEM leukemia = system: CCRF-CEM leukemia
HCT-15 colon = system: HCT-15 colon
NCI-H226 lung = system: NCI-H226 lung
SF-295 CNS = system: SF-295 CNS
DU-145 prostate = system: DU-145 prostate
PC-3 prostate = system: PC-3 prostate
HL-60(TB) leukemia = system: HL-60(TB) leukemia
MDA-MB-435 = system: MDA-MB-435
U251 CNS = system: U251 CNS
UACC-257 melanoma = system: UACC-257 melanoma
EKVX NSCLC = system: EKVX NSCLC
HOP-92 NSCLC = system: HOP-92 NSCLC
OVCAR-8 ovarian = system: OVCAR-8 ovarian
A549 NSCLC = system: A549 NSCLC
OVCAR-5 ovarian = system: OVCAR-5 ovarian
T-47D breast = system: T-47D breast
TK-10 renal = system: TK-10 renal
UACC-62 melanoma = system: UACC-62 melanoma
RPMI-8226 leukemia = system: RPMI-8226 leukemia
OVCAR-3 ovarian = system: OVCAR-3 ovarian
M14 melanoma = system: M14 melanoma
SK-MEL-5 melanoma = system: SK-MEL-5 melanoma
MOLT-4 leukemia = system: MOLT-4 leukemia
NCI-H522 lung = system: NCI-H522 lung
IGROV1 ovarian = system: IGROV1 ovarian
NCI/ADR-RES ovarian = system: NCI/ADR-RES ovarian
SNB-19 CNS = system: SNB-19 CNS
786-0 renal = system: 786-0 renal
SK-MEL-28 melanoma = system: SK-MEL-28 melanoma
HT29 colon = system: HT29 colon
HOP-62 NSCLC = system: HOP-62 NSCLC
K-562 leukemia = system: K-562 leukemia
SK-MEL-2 melanoma = system: SK-MEL-2 melanoma
SF-268 CNS = system: SF-268 CNS
SK-OV-3 ovarian = system: SK-OV-3 ovarian
ACHN renal = system: ACHN renal
OVCAR-4 ovarian = system: OVCAR-4 ovarian
RXF 393 renal = system: RXF 393 renal
KM12 colon = system: KM12 colon
SN12C renal = system: SN12C renal
LOX IMVI melanoma = system: LOX IMVI melanoma
UO-31 renal = system: UO-31 renal
MCF7 breast = system: MCF7 breast

Molecule `CC1=CC[C@](C)(O)[C@@]2(C)CC[C@H]3C(=C(C)C)C(=O)C[C@]3(C)C[C@H]12` has a TGI (NCI-H23 lung) of over 50 µM, a TGI (A498 renal) of over 50 µM and a TGI (COLO 205 colon) of over 50 µM. It also gave a TGI (HCC-2998 colon) of over 50 µM, a TGI (MDA-MB-231 breast) of over 50 µM and a TGI (SF-539 CNS) of over 50 µM. The TGI (SNB-75 CNS) was over 50 µM, the TGI (SW-620 colon) was over 50 µM and the TGI (HS 578T breast) was over 50 µM. The TGI (HCT-116 colon) was over 50 µM, the TGI (SR leukemia) was 40.6 µM and the TGI (BT-549 breast) was over 50 µM. The TGI (CAKI-1 renal) was over 50 µM, the TGI (CCRF-CEM leukemia) was 34.2 µM and the TGI (HCT-15 colon) was 46.2 µM. For the same molecule, the TGI (NCI-H226 lung) was over 50 µM, the TGI (SF-295 CNS) was over 50 µM and the TGI (DU-145 prostate) was over 50 µM. The TGI (PC-3 prostate) was over 50 µM, the TGI (HL-60(TB) leukemia) was 16.4 µM and the TGI (MDA-MB-435) was over 50 µM. The TGI (U251 CNS) was over 50 µM, the TGI (UACC-257 melanoma) was over 50 µM and the TGI (EKVX NSCLC) was over 50 µM. For the same molecule, the TGI (HOP-92 NSCLC) was over 50 µM, the TGI (OVCAR-8 ovarian) was over 50 µM and the TGI (A549 NSCLC) was over 50 µM. For the same molecule, the TGI (OVCAR-5 ovarian) was over 50 µM, the TGI (T-47D breast) was over 50 µM and the TGI (TK-10 renal) was over 50 µM. The TGI (UACC-62 melanoma) was 47.1 µM, the TGI (RPMI-8226 leukemia) was 26.2 µM and the TGI (OVCAR-3 ovarian) was over 50 µM. It also gave a TGI (M14 melanoma) of over 50 µM, a TGI (SK-MEL-5 melanoma) of over 50 µM and a TGI (MOLT-4 leukemia) of 25.7 µM. It also gave a TGI (NCI-H522 lung) of 31.5 µM, a TGI (IGROV1 ovarian) of over 50 µM and a TGI (NCI/ADR-RES ovarian) of over 50 µM. The TGI (SNB-19 CNS) was over 50 µM, the TGI (786-0 renal) was over 50 µM and the TGI (SK-MEL-28 melanoma) was over 50 µM. It also gave a TGI (HT29 colon) of over 50 µM, a TGI (HOP-62 NSCLC) of over 50 µM and a TGI (K-562 leukemia) of 17 µM. For the same molecule, the TGI (SK-MEL-2 melanoma) was over 50 µM, the TGI (SF-268 CNS) was over 50 µM and the TGI (SK-OV-3 ovarian) was over 50 µM. For the same molecule, the TGI (ACHN renal) was over 50 µM, the TGI (OVCAR-4 ovarian) was over 50 µM and the TGI (RXF 393 renal) was over 50 µM. For the same molecule, the TGI (KM12 colon) was over 50 µM, the TGI (SN12C renal) was over 50 µM and the TGI (LOX IMVI melanoma) was 17 µM. The TGI (UO-31 renal) was over 50 µM and the TGI (MCF7 breast) was over 50 µM.
